How the values were obtained:
[1] = test system: LoVo human colon carcinoma cell line; assay: In vitro antitumor activity assay (SRB), LoVo; format: cell-based; conditions: Table 2, read-out: IC50, inhibition of cell proliferation, LoVo
From the text: HeLa human cervical carcinoma cell line, A-549 human non-small cell lung carcinoma cell line, NCI-H2228 human lung carcinoma cell line, NCI-H460 human lung carcinoma cell line, MDA-MB-231 human breast carcinoma cell line, MCF-7 human breast carcinoma cell line, Bel-7402 human hepatic carcinoma cell line, Hep3B human hepatic carcinoma cell line, QGY-7703 human hepatic carcinoma cell line, MV-4-11 human leukemic cell line, DAUDI human leukemic cell line, Jurkat human leukemic cell line, A498 renal carcinoma cell line, LoVo human colon carcinoma cell line, HCT1116 human colon carcinoma cell line, A431 human skin carcinoma cell line, PANC-1 human pancreatic carcinoma cell line, U87-MG human brain carcinoma cell line, SH-SY5Y human brain carcinoma cell line, RPMI-8226 human bone carcinoma cell line, HT1080 human fibrosarcoma cell line, PC-3 human prostatic carcinoma cell line, AGS human gastric adenocarcinoma cell line, and BGC-823 human gastric adenocarcinoma cell line were purchased from the Cell Bank of the Chinese Academy of Sciences.
The positive control is bufalin (formulated according to the common method), its purity is 98% or more by HPLC-UV and its structure is identified by NMR. The compounds to be tested and the positive control were diluted with normal saline with a concentration gradient of 10^−4 M, 10^−5 M, 10^−6 M, 10^−7 M and 10^−8 M.
According to cell growth rate, tumor cells in the log phase of growth were seeded into 96-well culture plates at 100 μL per well, and allowed to attach for 24 hours, followed by addition of a test compound or positive control at 10 μL per well. For each concentration, the test was carried out in triplicate wells. Solvent control wells with addition of normal saline into cell culture and a blank well containing only cell culture medium but without cells for zeroing were also included. The tumor cells were incubated for 72 hours at 37° C. under 5% CO2, and then the culture medium (RPMI-1640) was removed. The cells were fixed with 10% cool TCA by incubating for 1 h at 4° C., washed with distilled water for 5 times, and dried naturally in the air. A solution of SRB (Sigma) (4 mg/mL) in 1% glacial acetic acid was added at 100 μL per well, and the cells were stained for 15 minutes at room temperature, and the supernatant was discarded. The plates were washed for 5 times with 1% acetic acid, and dried in air. Finally, Tris solution was added at 150 μL per well, and the absorbance (A) was measured at a wavelength of 515 nm using a microplate reader. The growth inhibition on tumor cell proliferation was calculated according to the following equation:
Growth Inhibition (%)=[(Absorbance of negative control−Absorbance of blank)−(Absorbance of sample−Absorbance of blank)]/(Absorbance of negative control−Absorbance of blank)×100%
Drug concentration: 10 μM, 1 μM, 0.1 μM, 10 nM, 1 nM, 0.1 nM.
IC50 was fitted by GraphPad Prism 4.

[2] = test system: HeLa human cervical carcinoma cell line; assay: In vitro antitumor activity assay (SRB), HeLa; format: cell-based; conditions: read-out: IC50, inhibitory activity on cell proliferation of HeLa cell line
Procedure, shortened: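 Log-phase cells attached 24 h, then exposed in triplicate to compounds at 10 μM–0.1 nM in saline for 72 h at 37 °C in RPMI-1640. TCA-fixed, SRB-stained, A515 read; percent inhibition versus saline control, IC50 fitted.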

[3] = test system: human-derived leukaemia MV-4-11 xenograft; assay: Therapeutic effect against MV-4-11 xenograft in nude mice; format: in vivo, Balb/c nude mice; conditions: for Inhibition Rate (%): 4 mg/kg
Protocol: This experiment is to investigate the in vivo inhibitory effect of II1E-01.HCl on growth of human-derived hepatic carcinoma HepG2 cell, human-derived breast carcinoma MDA-MB-231 cell, human-derived lung carcinoma H460 cell, human-derived colon carcinoma HCT-116 cell, human-derived […] MV-4-11 cell xenografts in nude mice.
Formulation of solvent control (5% anhydrous ethanol & 5% aqueous glucose solution): 2.5 mL anhydrous ethanol was added into a 50 mL tube, followed by addition of 47.5 mL 5% glucose solution for injection followed by shaking, and stored at room temperature before use.
Formulation of the preparations of the compounds to be tested: formulations with concentrations of 0.4 mg/mL and 0.6 mg/mL were prepared respectively. An appropriate amount of II1E-01.HCl was weighted and put into a 50 mL tube, followed by addition of corresponding volume of solvent to get the desired concentration and mixed using a vortex mixer. After the solid was dissolved completely, the solution was subpackaged into 4 mL vials and stored at refrigerated condition (2-8° C.) until use.
Experimental animals: Balb/c nude mice (male, six weeks old).
MV-4-11 cells were in vitro cultured to be proliferated. The cells in the log phase of growth were collected and resuspended in IMDM serum-free medium, and then implanted subcutaneously into the axilla of the right forelimb of nude mice. After 37 days, the tumor size reached about 270 mm^3. The mice bearing the tumor were grouped by randomized block method according to the tumor size into 3 groups, which contain 6 mice in each group and include the group of solvent control, group of positive control (Sunitinib 40 mg/kg), and group of the testing compound II1E-01.HCl (4 mg/kg QOD). In the positive control group, sunitinib was administered intragastrically once daily (QD). In the group of II1E-01.HCl, II1E-01.HCl was administered intravenously at tail once every other day (QOD). The animals were given the drugs for 21 days, during which the growth of tumor and the body weight of the mice were observed.
After continuously administering for 21 days (the 58th day after the implantation), the tumor weight and inhibition rate were calculated, and results are listed in Table 9. […] In the group of the testing compound II1E-01.HCl (4 mg/kg QOD), the tumor also completely disappeared at 14th day after administration, and the inhibition rate was 100.00% (P<0.01) at the end of the experiment.

Row | Structure (SMILES) | IC50 [1] [nM] | IC50 [2] [nM] | day after administration at which the tumor completely disappeared ([3]; 4 mg/kg iv QOD) [days] | Tumor Weight(g) Mean ± SE ([3]; 4 mg/kg iv, QOD × 21 d) [g] | Inhibition Rate (%) ([3]; 4 mg/kg iv, QOD × 21 d) | Inhibition Rate (%) ([3]; 4 mg/kg iv, QOD × 21 d, listed as II1E-01.HCl)
1 | C[C@]12CC[C@H](O)C[C@H]1CC[C@@H]1[C@@H]2CC[C@]2(C)[C@@H](c3ccc(=O)oc3)CC[C@]12O [bufalin, reference compound] | 29.5 ± 1 | 7.27 |  |  |  | 
2 | C[C@]12CC[C@H](OC(=O)NC3CCNCC3)C[C@H]1CC[C@@H]1[C@@H]2CC[C@]2(C)[C@@H](c3ccc(=O)oc3)CC[C@]12O.Cl [II1E-01•HCl] |  |  | 14 | 0.0000 ± 0.0000 | 100.00 | 100.00

From patent US20130005696A1, “BUFADIENOLIDE DERIVATIVES, PREPARING PROCESS THEREOF, COMPOSITION COMPRISING THE SAME AND THE USE THEREOF” (priority 2011, published 2013)
